Data: ChEMBL document CHEMBL1671711, “Serum and cerebrospinal fluid levels of colistin in pediatric patients” (Antimicrob Agents Chemother, 2010)
≈ marks a conversion by molar mass, not a printed value.

Tested on: Acinetobacter baumannii
Assay: Antimicrobial activity against Acinetobacter baumannii
Assay type: functional

In the case of `C[C@@H](O)[C@H]1C(=O)N2C(C(=O)O)=C(S[C@@H]3CN[C@H](C(=O)N(C)C)C3)[C@H](C)[C@H]12` [MEROPENEM], the MIC is reported as 8 mg/L (≈ 20.9 µM).
